{"source": "PubChem BioAssay (NCI)", "assay_in_all_cases": "DTP human tumour cell line panel, 48 h", "key": {"[1]": {"test_system": "786-0 renal"}, "[2]": {"test_system": "A498 renal"}, "[3]": {"test_system": "A549 NSCLC"}, "[4]": {"test_system": "ACHN renal"}, "[5]": {"test_system": "BT-549 breast"}, "[6]": {"test_system": "CAKI-1 renal"}, "[7]": {"test_system": "CCRF-CEM leukemia"}, "[8]": {"test_system": "COLO 205 colon"}, "[9]": {"test_system": "DU-145 prostate"}, "[10]": {"test_system": "EKVX NSCLC"}, "[11]": {"test_system": "HCC-2998 colon"}, "[12]": {"test_system": "HCT-116 colon"}, "[13]": {"test_system": "HCT-15 colon"}, "[14]": {"test_system": "HL-60(TB) leukemia"}, "[15]": {"test_system": "HOP-62 NSCLC"}, "[16]": {"test_system": "HOP-92 NSCLC"}, "[17]": {"test_system": "HS 578T breast"}, "[18]": {"test_system": "HT29 colon"}, "[19]": {"test_system": "IGROV1 ovarian"}, "[20]": {"test_system": "K-562 leukemia"}, "[21]": {"test_system": "KM12 colon"}, "[22]": {"test_system": "LOX IMVI melanoma"}, "[23]": {"test_system": "M14 melanoma"}, "[24]": {"test_system": "MALME-3M melanoma"}, "[25]": {"test_system": "MCF7 breast"}, "[26]": {"test_system": "MDA-MB-231 breast"}, "[27]": {"test_system": "MDA-MB-435"}, "[28]": {"test_system": "MOLT-4 leukemia"}, "[29]": {"test_system": "NCI-H226 lung"}}, "note": "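Values below derive from 48-hour exposures of cells grown in 96-well plates, with endpoints linearly interpolated between the two concentrations bracketing the appropriate inhibition level. GI50: concentration for 50% inhibition of growth. TGI marks complete inhibition of growth.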"}
{"smiles": "COc1ccc2c(C3=C(c4cn(C)c5ccccc45)C(=O)NC3=O)coc2c1", "values": [{"measurement": "GI50", "setting": "[1]", "value": 524, "unit": "nM"}, {"measurement": "TGI", "setting": "[1]", "value": 16500, "unit": "nM"}, {"measurement": "GI50", "setting": "[2]", "value": 7450, "unit": "nM"}, {"measurement": "TGI", "setting": "[2]", "value": 25500, "unit": "nM"}, {"measurement": "GI50", "setting": "[3]", "value": 1000, "unit": "nM"}, {"measurement": "TGI", "setting": "[3]", "value": "> 100000", "unit": "nM"}, {"measurement": "GI50", "setting": "[4]", "value": 798, "unit": "nM"}, {"measurement": "TGI", "setting": "[4]", "value": 15500, "unit": "nM"}, {"measurement": "GI50", "setting": "[5]", "value": 847, "unit": "nM"}, {"measurement": "TGI", "setting": "[5]", "value": 18200, "unit": "nM"}, {"measurement": "GI50", "setting": "[6]", "value": 160, "unit": "nM"}, {"measurement": "TGI", "setting": "[6]", "value": 17300, "unit": "nM"}, {"measurement": "GI50", "setting": "[7]", "value": 286, "unit": "nM"}, {"measurement": "TGI", "setting": "[7]", "value": 13700, "unit": "nM"}, {"measurement": "GI50", "setting": "[8]", "value": 289, "unit": "nM"}, {"measurement": "TGI", "setting": "[8]", "value": 1310, "unit": "nM"}, {"measurement": "GI50", "setting": "[9]", "value": 541, "unit": "nM"}, {"measurement": "TGI", "setting": "[9]", "value": 19500, "unit": "nM"}, {"measurement": "GI50", "setting": "[10]", "value": 593, "unit": "nM"}, {"measurement": "TGI", "setting": "[10]", "value": "> 88400", "unit": "nM"}, {"measurement": "GI50", "setting": "[11]", "value": 650, "unit": "nM"}, {"measurement": "TGI", "setting": "[11]", "value": 10900, "unit": "nM"}, {"measurement": "GI50", "setting": "[12]", "value": 267, "unit": "nM"}, {"measurement": "TGI", "setting": "[12]", "value": 12100, "unit": "nM"}, {"measurement": "GI50", "setting": "[13]", "value": 172, "unit": "nM"}, {"measurement": "TGI", "setting": "[13]", "value": 24400, "unit": "nM"}, {"measurement": "GI50", "setting": "[14]", "value": 155, "unit": "nM"}, {"measurement": "TGI", "setting": "[14]", "value": 865, "unit": "nM"}, {"measurement": "GI50", "setting": "[15]", "value": 416, "unit": "nM"}, {"measurement": "TGI", "setting": "[15]", "value": 20100, "unit": "nM"}, {"measurement": "GI50", "setting": "[16]", "value": 21300, "unit": "nM"}, {"measurement": "TGI", "setting": "[16]", "value": 44500, "unit": "nM"}, {"measurement": "GI50", "setting": "[17]", "value": 234, "unit": "nM"}, {"measurement": "TGI", "setting": "[17]", "value": 3800, "unit": "nM"}, {"measurement": "GI50", "setting": "[18]", "value": 300, "unit": "nM"}, {"measurement": "TGI", "setting": "[18]", "value": 4830, "unit": "nM"}, {"measurement": "GI50", "setting": "[19]", "value": 700, "unit": "nM"}, {"measurement": "TGI", "setting": "[19]", "value": 24400, "unit": "nM"}, {"measurement": "GI50", "setting": "[20]", "value": 99.7, "unit": "nM"}, {"measurement": "TGI", "setting": "[20]", "value": "> 100000", "unit": "nM"}, {"measurement": "GI50", "setting": "[21]", "value": 347, "unit": "nM"}, {"measurement": "TGI", "setting": "[21]", "value": 13100, "unit": "nM"}, {"measurement": "GI50", "setting": "[22]", "value": 558, "unit": "nM"}, {"measurement": "TGI", "setting": "[22]", "value": 16600, "unit": "nM"}, {"measurement": "GI50", "setting": "[23]", "value": 288, "unit": "nM"}, {"measurement": "TGI", "setting": "[23]", "value": 18600, "unit": "nM"}, {"measurement": "GI50", "setting": "[24]", "value": 12200, "unit": "nM"}, {"measurement": "TGI", "setting": "[24]", "value": 33000, "unit": "nM"}, {"measurement": "GI50", "setting": "[25]", "value": 208, "unit": "nM"}, {"measurement": "TGI", "setting": "[25]", "value": 26000, "unit": "nM"}, {"measurement": "GI50", "setting": "[26]", "value": 632, "unit": "nM"}, {"measurement": "TGI", "setting": "[26]", "value": 8110, "unit": "nM"}, {"measurement": "GI50", "setting": "[27]", "value": 132, "unit": "nM"}, {"measurement": "TGI", "setting": "[27]", "value": 477, "unit": "nM"}, {"measurement": "GI50", "setting": "[28]", "value": 424, "unit": "nM"}, {"measurement": "TGI", "setting": "[28]", "value": 33200, "unit": "nM"}, {"measurement": "GI50", "setting": "[29]", "value": 1520, "unit": "nM"}, {"measurement": "TGI", "setting": "[29]", "value": 17700, "unit": "nM"}]}
